Assay results from US20110015069A1, “Herbicidal Compositions Comprising Pyroxasulfone IV” (BASF SE, priority 2008, published 2011).
Read-outs that look alike come from different tables or passages of the source.

Legend:
Bromus inermis (BROIN) = assay: greenhouse pre-emergence herbicidal activity; format: in vivo; details: read-out: observed % activity; for inhibition at 47 g/ha: metazachlor 47 g ai/ha; for inhibition at 12.5 g/ha: pyroxasulfone 12.5 g ai/ha; for inhibition at 25 g/ha: pyroxasulfone 25 g ai/ha
Excerpt: (§1) For the pre-emergence treatment, directly after sowing the active compounds, which had been suspended or emulsified in water, were applied by means of finely distributed nozzles. The containers were irrigated gently to promote germination and growth and subsequently covered with transparent plastic hoods until plant had rooted. This cover caused uniform germination of the tests plants, unless this was adversely affected by active compounds.
(§2) The respective herbicides A and/or safener were formulated as 10% by weight strength emulsion concentrate and introduced to the spray liquor with the amount of solvent system used for applying the active compound. In the examples, the solvent used was water. Herbicide B and/or safener were used as commercially available formulations and introduced to the spray liquor with the amount of solvent system used for applying the active compound. In the examples, the solvent used was water.
(§3) Metazachlor was used as a commercial aqueous suspension concentrate having an active ingredient concentration of 500 g/l.
(§4) The test period extended over 21 days. During this time, the plants were tended, and their response to the treatments with active compound was evaluated.
(§5) The evaluation for the damage caused by the chemical compositions was carried out using a scale from 0 to 100%, compared to the untreated control plants. Here, 0 means no damage and 100 means complete destruction of the plants.
(§6) The value E, which is to be expected if the activity of the individual compounds is just additive, was calculated using the method of S. R. Colby (1967) “Calculating synergistic and antagonistic responses of herbicide combinations”, Weeds 15, p. 22 ff.
(§7) where X=effect in percent using herbicide A at an application rate a; • Y=effect in percent using herbicide B at an application rate b; • E=expected effect (in %) of A+B at application rates a+b.
(§8) If the value observed in this manner is higher than the value E calculated according to Colby, a synergistic effect is present.

[1] = system: Capsella bursa-pastoris (CAPBP); assay: greenhouse pre-emergence herbicidal activity; format: in vivo; details: read-out: observed % activity; for inhibition at 47 g/ha: metazachlor 47 g ai/ha; for inhibition at 94 g/ha: metazachlor 94 g ai/ha; for inhibition at 6.25 g/ha: pyroxasulfone 6.25 g ai/ha; for inhibition at 25 g/ha: pyroxasulfone 25 g ai/ha; for inhibition at 50 g/ha: pyroxasulfone 50 g ai/ha
Excerpt: as §1, §2, §3, §4, §5, §6, §7, §8

Galium aparine (GALAP) = assay: greenhouse pre-emergence herbicidal activity; format: in vivo; details: read-out: observed % activity; for inhibition at 47 g/ha: metazachlor 47 g ai/ha; for inhibition at 50 g/ha: pyroxasulfone 50 g ai/ha
Excerpt: as §1, §2, §3, §4, §5, §6, §7, §8

[2] = system: Matricaria inermis (MATIN); assay: greenhouse pre-emergence herbicidal activity; format: in vivo; details: read-out: observed % activity; for inhibition at 47 g/ha: metazachlor 47 g ai/ha; for inhibition at 6.25 g/ha: pyroxasulfone 6.25 g ai/ha; for inhibition at 25 g/ha: pyroxasulfone 25 g ai/ha
Excerpt: as §1, §2, §3, §4, §5, §6, §7, §8

Thlaspi arvense (THLAR) = assay: greenhouse pre-emergence herbicidal activity; format: in vivo; details: read-out: observed % activity; for inhibition at 47 g/ha: metazachlor 47 g ai/ha; for inhibition at 94 g/ha: metazachlor 94 g ai/ha; for inhibition at 187 g/ha: metazachlor 187 g ai/ha; for inhibition at 6.25 g/ha: pyroxasulfone 6.25 g ai/ha; for inhibition at 12.5 g/ha: pyroxasulfone 12.5 g ai/ha; for inhibition at 25 g/ha: pyroxasulfone 25 g ai/ha; for inhibition at 50 g/ha: pyroxasulfone 50 g ai/ha
Excerpt: as §1, §2, §3, §4, §5, §6, §7, §8

[3] = system: Capsella bursa-pastoris (CAPBP); assay: greenhouse post-emergence herbicidal activity; format: in vivo; details: 20 DAT
Excerpt: (§9) For the post-emergence treatment, the test plants were first grown to a height of 3 to 20 cm, depending on the plant habit, and only then treated. Here, the herbicidal compositions were suspended or emulsified in water as distribution medium and sprayed using finely distributing nozzles.
as §2, §3, §4, §5, §6, §7, §8

[4] = system: Matricaria inermis (MATIN); assay: greenhouse post-emergence herbicidal activity; format: in vivo; details: 20 DAT
Excerpt: as §9, §2, §3, §4, §5, §6, §7, §8

Veronica persica (VERPE) = assay: greenhouse post-emergence herbicidal activity; format: in vivo; details: 20 DAT
Excerpt: as §9, §2, §3, §4, §5, §6, §7, §8

Viola arvensis (VIOAR) = assay: greenhouse post-emergence herbicidal activity; format: in vivo; details: for inhibition at 94 g/ha / inhibition at 25 g/ha / inhibition at 100 g/ha: Viola arvensis, read-out: observed % activity; for observed activity in % destruction 20 days after treatment: 20 DAT (Table 3)
Excerpt: as §9, §2, §3, §4, §5, §6, §7, §8

[5] = known from Y. Yamaji et al., 2006; cited from earlier work

## Cc1cccc(C)c1N(Cn1cccn1)C(=O)CCl [metazachlor]
Bromus inermis (BROIN); 192 h, 8 DAT
  inhibition at 47 g/ha: 35%
Bromus inermis (BROIN); 480 h, 20 DAT
  inhibition at 47 g/ha: 30%
[1]; 192 h, 8 DAT
  inhibition at 47 g/ha: 40%
  inhibition at 94 g/ha: 40%
[1]; 480 h, 20 DAT
  inhibition at 47 g/ha: 70%
  inhibition at 94 g/ha: 80%
Galium aparine (GALAP); 192 h, 8 DAT
  inhibition at 47 g/ha: 30%
Galium aparine (GALAP); 480 h, 20 DAT
  inhibition at 47 g/ha: 35%
[2]; 192 h, 8 DAT
  inhibition at 47 g/ha: 20%
[2]; 480 h, 20 DAT
  inhibition at 47 g/ha: 35%
Thlaspi arvense (THLAR); 192 h, 8 DAT
  inhibition at 47 g/ha: 20%
  inhibition at 94 g/ha: 30%
  inhibition at 187 g/ha: 45%
Thlaspi arvense (THLAR); 480 h, 20 DAT
  inhibition at 47 g/ha: 0%
  inhibition at 94 g/ha: 0%
  inhibition at 187 g/ha: 30%
[3]; metazachlor 94 g ai/ha
  observed activity in % destruction 20 days after treatment: 45%
[4]; metazachlor 187 g ai/ha
  observed activity in % destruction 20 days after treatment: 60%
[4]; metazachlor 750 g ai/ha
  observed activity in % destruction 20 days after treatment: 80%
Veronica persica (VERPE); metazachlor 94 g ai/ha
  observed activity in % destruction 20 days after treatment: 60%
Veronica persica (VERPE); metazachlor 187 g ai/ha
  observed activity in % destruction 20 days after treatment: 80%
Viola arvensis (VIOAR); 168 h, metazachlor 94 g ai/ha, 7 DAT
  inhibition at 94 g/ha: 30%
Viola arvensis (VIOAR); 480 h, metazachlor 94 g ai/ha, 20 DAT
  inhibition at 94 g/ha: 0%
Viola arvensis (VIOAR); metazachlor 94 g ai/ha
  observed activity in % destruction 20 days after treatment: 0%

## Cn1nc(C(F)(F)F)c(CS(=O)(=O)C2=NOC(C)(C)C2)c1OC(F)F [pyroxasulfone, 3-[5-(difluoromethoxy)-1-methyl-3-(trifluoromethyl)pyrazol-4-ylmethylsulfonyl]-4,5-dihydro-5,5-dimethyl-1,2-oxazole]
Bromus inermis (BROIN); 192 h, 8 DAT
  inhibition at 12.5 g/ha: 50%
  inhibition at 25 g/ha: 50%
Bromus inermis (BROIN); 480 h, 20 DAT
  inhibition at 12.5 g/ha: 50%
  inhibition at 25 g/ha: 60%
[1]; 192 h, 8 DAT
  inhibition at 6.25 g/ha: 40%
  inhibition at 25 g/ha: 60%
  inhibition at 50 g/ha: 60%
[1]; 480 h, 20 DAT
  inhibition at 6.25 g/ha: 40%
  inhibition at 25 g/ha: 95%
  inhibition at 50 g/ha: 95%
Galium aparine (GALAP); 192 h, 8 DAT
  inhibition at 50 g/ha: 60%
Galium aparine (GALAP); 480 h, 20 DAT
  inhibition at 50 g/ha: 80%
[2]; 192 h, 8 DAT
  inhibition at 6.25 g/ha: 0%
  inhibition at 25 g/ha: 20%
[2]; 480 h, 20 DAT
  inhibition at 6.25 g/ha: 20%
  inhibition at 25 g/ha: 50%
Thlaspi arvense (THLAR); 192 h, 8 DAT
  inhibition at 6.25 g/ha: 30%
  inhibition at 12.5 g/ha: 40%
  inhibition at 25 g/ha: 60%
  inhibition at 50 g/ha: 60%
Thlaspi arvense (THLAR); 480 h, 20 DAT
  inhibition at 6.25 g/ha: 20%
  inhibition at 12.5 g/ha: 30%
  inhibition at 25 g/ha: 80%
  inhibition at 50 g/ha: 80%
[3]; pyroxasulfone 25 g ai/ha
  observed activity in % destruction 20 days after treatment: 35%
[4]; pyroxasulfone 25 g ai/ha
  observed activity in % destruction 20 days after treatment: 0%
[4]; pyroxasulfone 50 g ai/ha
  observed activity in % destruction 20 days after treatment: 0%
[4]; pyroxasulfone 100 g ai/ha
  observed activity in % destruction 20 days after treatment: 20%
Veronica persica (VERPE); pyroxasulfone 100 g ai/ha
  observed activity in % destruction 20 days after treatment: 90%
Viola arvensis (VIOAR); 168 h, pyroxasulfone 25 g ai/ha, 7 DAT
  inhibition at 25 g/ha: 0%
Viola arvensis (VIOAR); 168 h, pyroxasulfone 100 g ai/ha, 7 DAT
  inhibition at 100 g/ha: 50%
Viola arvensis (VIOAR); 480 h, pyroxasulfone 25 g ai/ha, 20 DAT
  inhibition at 25 g/ha: 0%
Viola arvensis (VIOAR); 480 h, pyroxasulfone 100 g ai/ha, 20 DAT
  inhibition at 100 g/ha: 65%
Viola arvensis (VIOAR); pyroxasulfone 25 g ai/ha
  observed activity in % destruction 20 days after treatment: 0%
Viola arvensis (VIOAR); pyroxasulfone 100 g ai/ha
  observed activity in % destruction 20 days after treatment: 65%
[5]
  post-emergence activity: poor
